From patent US9975860B2, “Anti-angiogenic compounds” (UNIVERSITY COLLEGE DUBLIN—NATIONAL UNIVERSITY OF IRELAND, …, priority 2014, dated 2018)
Entries after “also recorded” stand apart in the source; their conditions may differ.

Legend:
[1] = system: human microvascular endothelial cells (HMECs); test: In vitro tubule formation in human microvascular endothelial cells; format: cell-based; conditions: 1, 3.16 and 10 μM, 16 hours, HMEC on matrigel
Procedure: Dermal-derived Human Microvascular Endothelial Cells (HMEC) were maintained at 37° C./5% CO2 in MCDB-131 medium (Gibco/cat: 10372) supplemented with 10% FCS, L-Glutamine (Gibco/cat: 25030-032), 1 μl/ml Hydrocortisone (Sigma/cat: H0396), 10 ng/ml EGF (BD Biosciences 354001) and 1% Pen-Strep (Gibco/cat: 151040-148). The wells of a μ-slide angiogenesis plate (IBIDI Cat no: 81506) were coated with a layer of matrigel matrix (BD 356234) which was left to polymerize for 45 minutes at 37° C. HMECs were grown to 80% confluence, washed with DPBS (Invitrogen) and trypsinised using 2 ml TrypLE™ Express (1×) (Invitrogen). Cells were centrifuged following flask detachment at 1200 rpm for 4 minutes. The cell pellet was resuspended in 3 ml full media and a cell count was performed using a haemocytometer. 7.5×10^3 cells were pipetted into each matrigel coated well of the μ-slide angiogenesis plate and treated with either 0.1% DMSO or 1, 3.16 or 10 μM compound 4 or compound 18. The slide was kept at 37° C./5% CO2 during cell tube formation. After 16 hours, the cells were imaged by phase contrast microscopy using the Zeiss Axiovert 200 M microscope. Total tubule length was quantified using Zeiss Axiovision image analysis software. Calcein AM stain (C3099 Invitrogen) was prepared at 2 μg/ml final concentration and incubated with HMEC cells following tubule formation for 30 minutes at 37° C. […]

[2] = system: primary hyaloid vessels in zebrafish; test: Quantification of primary hyaloid vasculature branch number in Tg(fli1:EGFP) zebrafish; format: in vivo
Procedure: All experiments were carried out under ethical approval granted by the UCD animal research ethics committee. Tg(fli1:EGFP) zebrafish were maintained according to standard procedures on a 14 hr light/10 hr dark cycle at 28° C. Embryos were obtained by natural spawning and developmental stages established by time and morphological criteria. At 48 hours post fertilisation (hpf), 5 embryos per well were placed in 400 μl of Embryo Medium/0.1% DMSO and incubated with compound (typically, 10 μM) at 28° C. on a 14 h light/10 h dark cycle. At 5 days post fertilisation (dpf), larvae were euthanised, and fixed in 4% PFA at 4° C. overnight before analysis.
Prior to analysis of the intraocular vasculature, the control and treated larvae were observed under an Olympus SZX16 stereo zoom microscope and screened for general malformations. Overall patterning of the vasculature (fin, gut and intersegmental vessels) was examined for abnormalities. Right lenses were dissected from the larvae and transferred to depression slides for observation under epi-fluorescence in the Olympus SZX16. Patterning of the hyaloid vessels on the treated larval lenses was compared to 0.1% DMSO controls and the archetypal pattern previously described (Alvarez et al., 2007; Alvarez et al., 2009). The number of primary vessels radiating from the back of the lens (3-4 main branches at 5 dpf in controls and previously described), was counted and the average number was graphed for each drug.
All experimental protocols were carried out as per example 1 and 2. Briefly, zebrafish larvae were treated with 10 μM of AT-051/41206012 (chemical name 2-[2-(2-methoxyphenyl)ethenyl]pyrazine) purchased from Specs (The Netherlands). At 6 or 48 hours post fertilisation (hpf), 5 embryos per well were placed in 400 μl of Embryo Medium/0.1% DMSO and incubated with 10 μM AT-051/41206012 at 28° C. on a 14 h light/10 h dark cycle. Larvae were treated from 6-48 hpf (intersegmental vessel study) or from 48 to 120 hpf (primary hyaloid vessel study). At the end of the study, larvae were euthanized and fixed in 4% PFA at 4° C. overnight before analysis.
The number of intersegmental vessels was counted and the average number was graphed for each drug. Right lenses were dissected from the larvae and transferred to depression slides for observation and the number of primary hyaloid vessels radiating from the back of the lens (3-4 main branches at 5 dpf in controls and previously described), was counted and the average number was graphed for each drug.

[3] = system: OE33P radiosensitive oesophageal adenocarcinoma cells; test: Seahorse OCR (oxidative phosphorylation) in OE33P; format: cell-based, human; conditions: 10 μM, 24 hours
Procedure: OE33P radiosensitive and OE33R radioresistant oesophageal adenocarcinoma cells were used to test the effects of the compound 4 on oxidative phosphorylation. Cells were maintained in RPMI media supplemented with 10% foetal calf serum, penicillin (100 U/ml) and streptomycin (100 μg/ml). A total of 11,000 OE33P cells and 13,000 OE33R cells, in 100 μl media, were seeded per well in 24 well plates and left to incubate for 24 hours, with an additional 150 μl media added after 5 hours. The media was replaced with solutions containing 10 μM of compound 4 or the equivalent volume of DMSO vehicle control. After 24 hours of treatment, media was replaced with modified DMEM supplemented with 0.5 mM glucose. Rates of oxidative phosphorylation were determined using Seahorse Biosciences metabolism technology. The media was disposed and the cells washed with PBS. The cells were fixed with 1% glutaraldehyde for 15 minutes and then stained with crystal violet for 30 minutes. The plates were blotted and dried overnight. The cells were resuspended with 1% TritonX-100 and shaken for 15 minutes. The absorbance was read on a spectrophotometer at 595 nm Rates of oxidative phosphorylation were then normalised to cell number.

[4] = system: human endothelial (HMEC) cells; test: MTT cell viability assay in HMEC; format: cell-based; conditions: 10 μM, 24 hours
Procedure: A 3-(4,5-dimethylthiozol-2-yl)-2,5-diphenyltetrazolium bromide (MTT) dye reduction assay was carried out to determine the cytotoxicity of each compound on either human microvascular endothelial cells (HMECs) or human retinal pigmented epithelium cells (ARPE-19). Cells were maintained in a 95% air and 5% CO2 atmosphere at 37° C. in Dulbecco modified Eagle medium (DMEM, Sigma Aldrich) with 10% fetal bovine serum, 2 mM Gibco® L-glutamine and 100 units/ml penicillin, 1 mg/ml streptomycin (Invitrogen) supplementation. On day 1, cells were trypsinized (Trypsin-EDTA 1×) and seeded 1.4×10^4 cells per well of a 96 well plate and incubated overnight. On day 2, cells were serum staved in DMEM with L-glutamine and penicillin-streptomycin supplementation for 24 h. On day 3, cells were drug treated for 24 h (HMECs) or 96 h (ARPE-19 cells) with 0.1% DMSO or 10 μM to 90 μM of each compound 4, 8, 15, 18 or 20, with 4 replicate wells of each compound. After 24-96 h, cells were incubated with […] 5 mg/ml MTT labelling Reagent (Roche) for 2 h. Subsequently, when purple formazan crystals formed cells were incubated with 1× solubilisation solution (Roche) for 4 h and absorbance read at 570 nm using a microplate reader.

[5] = 10 μM, zebrafish larvae treated 48 hpf to 5 dpf, vs 0.1% DMSO control
[6] = concentrations below 10 μM (range 1, 2.5, 5, 7.5 and 10 μM tested), zebrafish larvae 48 hpf to 5 dpf

SMILES: Cl.Oc1ccccc1/C=C/c1cnccn1 [Compound 4, (E)-2-[2-(Pyrazin-2-yl)vinyl]phenol hydrochloride]
- tubule formation (total tubule length) ([1]; hydrochloride): significantly reduce tubule formation; also recorded: inhibit in vitro tubule formation in a statistically significant manner
- inhibition of developmental angiogenesis of the hyaloid vasculature (number of primary hyaloid vessels) [2, 5]: inhibit developmental angiogenesis of the zebrafish hyaloid vasculature in a statistically significant manner
- inhibition of developmental angiogenesis of the hyaloid vasculature (number of primary hyaloid vessels) [2, 6]: inhibit developmental angiogenesis of the zebrafish hyaloid vasculature in a statistically significant manner
- oxygen consumption rate (OCR), a measure of oxidative phosphorylation [3]: does not significantly reduce oxygen consumption rate
- cell viability (MTT assay) [4]: does not affect cell viability

SMILES: Oc1ccccc1C#Cc1cnccn1 [Compound 18, 2-[2-(Pyrazin-2-yl)ethynyl]phenol]
- tubule formation (total tubule length) [1]: significantly reduce tubule formation; also recorded: inhibit in vitro tubule formation in a statistically significant manner
- inhibition of developmental angiogenesis of the hyaloid vasculature (number of primary hyaloid vessels) [2, 5]: inhibit developmental angiogenesis of the zebrafish hyaloid vasculature in a statistically significant manner
- inhibition of developmental angiogenesis of the hyaloid vasculature (number of primary hyaloid vessels) [2, 6]: inhibit developmental angiogenesis of the zebrafish hyaloid vasculature in a statistically significant manner
- cell viability (MTT assay) [4]: does not affect cell viability
